Test results taken from US20260062677A1, “ECTODERMAL MESENCHYMAL STEM CELLS AND METHOD FOR PRODUCING SAME” (STEMRIM INC., priority 2017, published 2026).

Assays:
[1] = tested on: colony-forming Pα cells in peripheral blood; test: Colony assay of cultured peripheral blood after HA1-44 peptide administration; format: in vivo, mouse; settings: FIG. 24
Description: The following method was used to recover cells from peripheral blood. Approximately 800 to 1000 μL of peripheral blood was collected from the heart under general anesthesia (using a 1 mL syringe containing heparin). To remove red blood cells, Hetasep (STEMCELL Technologies, Inc., Cat No. ST-07906) at equal amount of the collected blood was added, the mixture was centrifuged at 100 G for 2 minutes, and incubated at room temperature for 15 minutes, then the supernatant was recovered. The supernatant was subjected to the next experiment as a sample containing nuclear cells in peripheral blood.
The supernatant obtained by the above procedure (sample containing nucleated cells in peripheral blood) was seeded in a 6-well plate coated with collagen I (Corning Incorporated, Cat No. 356400), and cultured for 10 days under a condition of 37° C., 5% CO2, 5% 02 using a medium containing 1% L-glutamine (NACALAI TESQUE, INC.), 10 μM ROCK inhibitor (Y27632, Tocris Bioscience) and 1% penicillin/streptomycin (NACALAI TESQUE, INC.) in an expansion medium prepared using a MesenCult Expansion Kit (STEMCELL Technologies, Inc., Cat No. ST-05513) according to the manual of the kit (all concentrations described are final concentrations). The medium was replaced with a fresh medium twice a week during the culture period. […]

[2] = tested on: Pα^lin+ cells in grafted skin; test: Parabiosis model (Pα-Cre::Rosa26-EYFP / wild-type) with epidermolysis bullosa mouse skin graft; format: in vivo; settings: peptide given to the Pα-Cre::Rosa26-EYFP partner, epidermolysis bullosa skin grafted on the wild-type partner; FIG. 25
Description: (§1) A parabiosis model was created using a 6-week old male wild-type mouse and a 6-week old male cell lineage tracing mouse with reference to Kamran P et al. J Vis Exp. 2013 Oct. 6; (80). Two mice were simultaneously subjected to general anesthetic induction with isoflurane, and positioned on a heat pad. The body side surfaces opposite to each other of the two mice were shaved, and the skin was removed approximately 5 mm wide from the elbow joint to the knee joint. The dorsal skin was continuously sutured with 5-0 VICRYL. The elbow joints and knee joints each opposite to each other were sutured with 3-0 VICRYL. The abdominal skin was also continuously sutured with 5-0 VICRYL. The mice were left on the heat pad until awakened from anesthesia. To avoid restricting activity, up to one pair were raised per cage, and scattered food was offered.
(§2) The present inventors have previously identified a peptide (HA1-44 peptide) consisting of the amino acid sequence of positions 1-44 (SEQ ID NO: 1) at the N-terminus of HMGB1 protein as a domain having the activity of mobilizing bone marrow-derived Pα-positive mesenchymal stem cells into peripheral blood. […] Furthermore, a cartilage injury was created to the knee joint of a wild-type mouse alone that was not a parabiosis model, then the HA1-44 peptide or saline was administered.

[3] = tested on: Pα^+ and Prx1^lin− cells in the skin graft; test: Parabiosis model (Pα-H2B-GFP::Prx1-Cre::Rosa26-tdTomato / wild-type) with wild-type neonate skin graft; format: in vivo, mouse; settings: peptide given to the reporter partner, neonate skin grafted on back of the wild-type partner; FIG. 26
Description: as §1, §2

[4] = tested on: P0^lin+ cells at the cartilage injury site; test: Parabiosis (P0-Cre::Rosa26-tdTomato / wild-type) and knee cartilage defect model; format: in vivo, mouse; settings: 100 μg via tail vein, twice a week until 4 weeks; knee joint collected at 12 weeks; versus saline (no accumulation); FIG. 27
Description: as §1
A parabiosis model was created using a 6-week old male wild-type mouse and a 6-week old male P0-Cre::Rosa26-tdTomato mouse using the method described in 3. above. After completion of the blood chimera at 4 weeks after operation, a 0.5×0.5×0.5 mm cartilage defect was created in the knee joint of the wild-type mouse using a 0.5 mm-diameter hand-turned drill (manufactured by MEISINGER USA, L.L.C.). […] It was sliced at a thickness of 10 μm using a cryostat, and the distribution of Tomato-positive cells was analyzed by confocal microscopy. […]

[5] = tested on: knee cartilage injury site; test: Knee cartilage defect model in wild-type mouse, safranin O staining; format: in vivo; settings: wild-type mouse alone; 100 μg via tail vein twice a week until 4 weeks; 2, 4, 8 and 12 weeks; saline group only fibrous cartilage; FIG. 28
Description: A parabiosis model was created using a 6-week old male wild-type mouse and a 6-week old male P0-Cre::Rosa26-tdTomato mouse using the method described in 3. above. After completion of the blood chimera at 4 weeks after operation, a 0.5×0.5×0.5 mm cartilage defect was created in the knee joint of the wild-type mouse using a 0.5 mm-diameter hand-turned drill (manufactured by MEISINGER USA, L.L.C.). Shortly after the cartilage defect was created, 100 μg of HA1-44 peptide diluted with 100 μL of saline was administered from the tail vein and subsequently administered at the same dose twice a week until 4 weeks after operation. To the control group, 100 μL of saline was administered to each mouse from the tail vein on the same schedule as in the HA1-44 peptide administration group. A knee joint was collected 12 weeks after knee cartilage defect creation, then fixation with 4% paraformaldehyde (overnight), deashing with 0.5 M EDTA solution (3 days), and 30% sucrose replacement (1 day) were performed to create a frozen block. It was sliced at a thickness of 10 μm using a cryostat, and the distribution of Tomato-positive cells was analyzed by confocal microscopy. […]

vertebral Pα cells = test: Transcriptome and IPA pathway analysis of vertebral Pα cells after administration; format: in vivo, mouse; settings: compared to control group (saline)
Description: RNA was extracted from the cell population, and an RNA-seq library was created according to Smart-seq2 protocol (Nature Protocols 9, 171-181 (2014) doi: 10.1038/nprot.2014.006). The obtained library was sequenced with Nextseq 500 (Illumina, Inc.) using a nextseq high output kit (37 bp pair end reads). Using bcl2fastq v2.17.1.14 of Illumina, Inc. with default parameters and optional --no-lane-splitting, conversion of base calls to fastq format and demultiplex were performed. Reads were trimmed using TrimGalore (http://www.bioinformatics.babraham.ac.uk/projects/trim_galore/), and mapping and counting (quantification) were performed using RSEM (Li et al., BMC Bioinformatics 12, 323 (2011); version STAR-2.5.2b). Differential expression analysis among samples was performed using DESeq2 (Love et al., Genome Biol. 15, 550 (2014)). Differentially Expressed Genes (DEGs) were uploaded to the Ingenuity Pathway Analysis (IPA) software (https://www.qiagenbioinformatics.com) to extract the most relevant biological pathways and functions to DEGs. Clustering analysis was performed using ICGS algorithm of AltAnalyze_v.2.1.0-Py based on log 2 converted values of 1-added TPM (Transcripts Per kilobase Million) counts obtained with RSEM (log 2 (TPM+1)). […]

[6] = tested on: CD45-negative, TER-119-negative, and PDGFRβ-positive cells; test: Phase I clinical study, cells in circulating blood; format: in vivo; settings: human, intravenous administration; peripheral blood mononuclear cell fractions before, 8 h and 24 h after administration; FIG. 33
Description: Since PDGFRβ is a marker of human mesenchymal stem cells, it is believed that a marker (including a combination of multiple markers) defining iCFPα cells and vertebral CFPα cells in peripheral blood described herein, in which the term “PDGFRα” is replaced with the term “PDGFRβ”, will also be a marker (including a combination of multiple markers) defining EMSC (colony-forming PDGFR-positive cells in peripheral blood or in vertebra) in humans.

HA1-44 peptide: peptide consisting of amino acid sequence of positions 1-44 (MGKGDPKKPRGKMSSYAFFVQTCREEHKKKHPDASVNFSEFSKK) at the N-terminus of A-box of HMGB1 protein
number of colonies obtained by culturing peripheral blood ([1]; lineage tracing mice, versus control group (saline administration)): more colonies than peripheral blood in the control group
markers of the colonies obtained (Pα, Prx1 lineage) ([1]; peripheral blood of lineage tracing mice given the peptide): All of the colonies were Pα-positive, and the majority of which were Prx1 lineage-negative
Pα^lin+ cells expressing type 7 collagen in regenerated epithelial tissue of the skin graft [2]: presence of Pα^lin+ cells expressing type 7 collagen was confirmed
Pα^+ and Prx1^lin− cells in the skin graft [3]: presence of Pα^+ and Prx1^lin− cells in the skin graft was confirmed
accumulation of P0^lin+ cells at the cartilage injury site [4]: accumulation of P0^lin+ cells was confirmed
cartilage regeneration at the cartilage injury site [5]: hyaline cartilage was regenerated
pathways associated with EIF2 signaling, regulation of eIF4 and p70S6K signaling, and mTOR signaling (vertebral Pα cells; FIG. 31): activated
expression of cell death-related genes (vertebral Pα cells; FIG. 32): suppressed
CD45-negative, TER-119-negative, and PDGFRβ-positive cells in circulating blood [6]: increase
